Data reported in US20060167057A1, “Compounds for the treatment of CNS and amyloid associated diseases” (priority 2004, published 2006).

Biological target: T1, L1 transport system (large neutral amino acid carrier, L1-system carrier) (Rattus norvegicus, UniProt Q63016)
T1 construct: functionality of their endogenous transporters such as the L1-system carrier; endogenous in cells; host or cells: rat primary cerebrovascular (brain microcapillary) endothelial cells, RBEC
Test: Competitive binding assay to the brain L1 transport system (L-[U-14C]phenylalanine on rat primary cerebrovascular endothelial cells)
Method: Compound samples in PBS (without Ca^+2, Mg^+2)-glucose 30 mM-HEPES 10 mM—DMSO 1% as prepared in Example 1 were thawed and left for at least 30 minutes at 20-23° C. before preparation of the following sub-dilutions for the competitive binding assay: • 200 μL of the stock solution were added to 800 μL PBS (without Ca^+2, Mg^+2)-Glucose-HEPES-1% DMSO (PBSD-1) [diluted 1:5 for a final 1:5 dilution] • 100 μL (1/5 dilution above) were added to 900 μL PBSD-1 [diluted 1:10 for a final 1:50 dilution] • 100 μL (1/50 dilution above) were added to 900 μL PBSD-1 [diluted 1:10 for a final 1:500 dilution]
These sub-dilutions were used immediately or stored overnight at 4° C. before the competitive binding assay. A volume of 45 μL of each of the compound dilutions (1:5, 1:50, 1:500) in PBSD-1 was added to the appropriate wells in the dilution plate.
Brains from sixty 24-day-old rats were dissected individually on a sterile lint moistened with ice cold Hanks' balanced salt solution (Gibco BRL, Grand Island, N.Y.) containing 10 mM HEPES (medium 1) supplemented with 0.1% BSA. Cerebellum, striatum, optic nerves, and brain stem (white matter) were removed. After a mid-sagittal section of the brain, the meninges and leptomeningeal debris were removed by rolling a sterile dry cotton swab on the cortices. (Ichikawa N, Naora K, Hirano H, Hashimoto M, Masumura S, and Iwamoto K (1996). Isolation and primary culture of rat cerebral microvascular endothelial cells for studying drug transport in vitro. J Pharmacol Toxicol Meth 36: 45-52.). Clean cortices were minced in pieces of ≈2 mm^3 in 15 mL of ice-cold medium 1-0.1% BSA. The preparation was divided into 4 sterile pre-weighed tubes and centrifuged at 330× g at 20-25° C. for 5 min. Tubes were weighed and pre-warmed (37° C.) and medium 1 with 0.5% BSA containing 0.3% collagenase and 10 μg/mL DNAse 1 (Roche, Laval, Quebec, Canada) were added to each tube (1 mL/g of tissue).
The brain-collagenase mixture was vigorously agitated in a water bath at 37° C. for 90 min. Fifteen min before the end of the digestion, the tissue was homogenized using a 10-mL pipette until a creamy mixture was obtained (≈20 aspirations). Cells were washed by adding medium 1 with 0.1% BSA to the homogenate (26 mL/tube) and centrifuged at 100× g at 20-25° C. for 7 min. This washing step was repeated 3 more times, once for 5 min and twice for 3 min. Each pellet was re-suspended in 25 mL of a 15% dextran solution prepared in medium 1 with 0.1% BSA and centrifuged at 3200× g at 4° C. for 25 min to isolate vessels from neural tissue and dextran layers. Vascular pellets were re-suspended in 5 mL Ca^++—Mg^++-free-medium 1 with 0.1% BSA (medium 2) at 20-25° C. and transferred in a 50-mL tube. Remaining vessels were collected by rinsing the tubes and pooling the rinsing suspension. (Rupnick M A, Carey A, and Williams S K (1988). Phenotypic diversity in cultured cerebral microvascular endothelial cells in vitro. Cell Develop Biol 24: 435-444.)
The vascular preparation was filtered and rinsed (20 mL of medium 2) through a sterile 355-μm mesh. The 355-μm filtrate was sequentially filtered twice (20 mL of medium 2) through sterile 112-μm meshes and rinsed (Stanimirovic D B, Wong J, Ball R, and Durkin J P (1995). Free radical-induced endothelial membrane dysfunction at the site of the blood-brain barrier: relationship between lipid peroxidation, Na,K-ATPase activity, and ^51Cr release. Neurochem Res 20:1417-1427.) and the latter filtrate was filtered and rinsed through a sterile 20-μm mesh. A final step of filtration and rinse was repeated through a double layer of 20-μm meshes. All 20-μm meshes, which retained the microcapillaries, were then transferred into a 50-mL tube containing 20 mL of a 0.1% collagenase/dispase (Roche) solution in medium 2 supplemented with 10 μg/mL DNAse 1 and 0.147 μg/mL tosyl-lysine-chloromethyl-ketone (Sigma Chemical Co., Oakville, Ontario, Canada) (medium 3).

T1 sequence (Q63016 whole entry): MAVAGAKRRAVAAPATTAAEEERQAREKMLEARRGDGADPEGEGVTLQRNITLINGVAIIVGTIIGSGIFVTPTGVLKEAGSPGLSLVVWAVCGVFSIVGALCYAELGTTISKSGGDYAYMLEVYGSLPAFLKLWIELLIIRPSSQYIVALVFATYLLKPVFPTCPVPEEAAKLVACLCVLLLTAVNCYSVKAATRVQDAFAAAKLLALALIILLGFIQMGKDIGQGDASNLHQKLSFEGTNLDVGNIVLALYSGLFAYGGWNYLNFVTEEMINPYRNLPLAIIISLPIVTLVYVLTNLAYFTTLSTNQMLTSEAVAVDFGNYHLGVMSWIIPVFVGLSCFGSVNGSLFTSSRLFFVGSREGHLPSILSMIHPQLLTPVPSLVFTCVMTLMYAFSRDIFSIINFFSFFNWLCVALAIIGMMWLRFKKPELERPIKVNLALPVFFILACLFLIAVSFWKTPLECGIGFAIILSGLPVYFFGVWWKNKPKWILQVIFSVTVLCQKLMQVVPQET
T1 sequence (Q794F9 whole entry partner): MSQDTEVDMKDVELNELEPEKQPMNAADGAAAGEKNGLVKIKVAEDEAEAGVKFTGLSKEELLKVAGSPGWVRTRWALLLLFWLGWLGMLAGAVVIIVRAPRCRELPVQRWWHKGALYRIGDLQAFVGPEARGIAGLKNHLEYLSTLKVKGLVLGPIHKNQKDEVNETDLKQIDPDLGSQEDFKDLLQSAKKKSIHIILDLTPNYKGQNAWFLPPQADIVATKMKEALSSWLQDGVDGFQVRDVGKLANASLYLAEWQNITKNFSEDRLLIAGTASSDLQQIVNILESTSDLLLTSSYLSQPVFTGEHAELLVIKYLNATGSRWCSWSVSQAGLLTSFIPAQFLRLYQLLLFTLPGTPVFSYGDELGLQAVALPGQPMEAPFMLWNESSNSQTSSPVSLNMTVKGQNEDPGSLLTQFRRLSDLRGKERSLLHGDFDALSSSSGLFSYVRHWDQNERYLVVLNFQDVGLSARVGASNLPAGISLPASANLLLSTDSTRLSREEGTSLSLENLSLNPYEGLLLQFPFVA

Row | Compound | Comparison with the Binding of Phenylalanine (10^−4 M) | Comparison with the Binding of Phenylalanine (10^−5 M) | Comparison with the Binding of Phenylalanine (10^−6 M)
1 | NC(Cc1cccc(CSc2ncnc3[nH]ncc23)n1)C(=O)O (stereo not drawn) [Compound 33] | 3 (X > 20 Rank 3) | 3 (X > 20 Rank 3) | 3 (X > 20 Rank 3)
2 | NC(=O)C(N)Cc1cccc(CSc2ncnc3[nH]ncc23)n1 (stereo not drawn) [Compound 34] | 0 (X < 0 Rank 0) | 0 (X < 0 Rank 0) | 1 (0 < X < 10 Rank 1)
3 | NC(Cc1cccc(CSc2nnc[nH]2)n1)C(=O)O (stereo not drawn) [Compound 35] | 0 (X < 0 Rank 0) | 0 (X < 0 Rank 0) | 3 (X > 20 Rank 3)
4 | Nc1ccnc(SCc2cccc(CC(N)C(=O)O)n2)n1 (stereo not drawn) [Compound 38] | 2 (10 < X < 20 Rank 2) | 3 (X > 20 Rank 3) | 3 (X > 20 Rank 3)
5 | NC(=O)C(N)Cc1cccc(CSc2nccc(N)n2)n1 (stereo not drawn) [Compound 39] | 0 (X < 0 Rank 0) | 2 (10 < X < 20 Rank 2) | 3 (X > 20 Rank 3)
6 | NC(Cc1cccc(-c2cccc(N3CC=CCC3)c2)c1)C(=O)O (stereo not drawn) [Compound 43] | 0 (X < 0 Rank 0) | 2 (10 < X < 20 Rank 2) | 0 (X < 0 Rank 0)
7 | NC(Cc1ccc(-c2ccc(CN3CC=CCC3)cc2)cc1)C(=O)O (stereo not drawn) [Compound 44] | 0 (X < 0 Rank 0) | 1 (0 < X < 10 Rank 1) | 0 (X < 0 Rank 0)
8 | NC(Cc1cccc(CSc2ccnc3cc(C(F)(F)F)ccc23)n1)C(=O)O (stereo not drawn) [Compound 45] | 0 (X < 0 Rank 0) | 2 (10 < X < 20 Rank 2) | 0 (X < 0 Rank 0)
9 | NC(Cc1ccc(-c2ccc(CSc3ccnc4cc(C(F)(F)F)ccc34)cc2)cc1)C(=O)O (stereo not drawn) [Compound 47] | 0 (X < 0 Rank 0) | 2 (10 < X < 20 Rank 2) | 2 (10 < X < 20 Rank 2)
10 | N[C@@H](Cc1ccccc1)C(=O)NC(Cc1cccc(CSc2nnc(-c3ccccc3)o2)c1)C(=O)O (stereo partly drawn) [Compound 48] | 0 (X < 0 Rank 0) | 1 (0 < X < 10 Rank 1) | 1 (0 < X < 10 Rank 1)
11 | O=C(Nc1ccc(-c2ccccc2)cc1)NC(Cc1cccc(CSc2nnc(-c3ccccc3)o2)c1)C(=O)O (stereo not drawn) [Compound 49] | 2 (10 < X < 20 Rank 2) | 3 (X > 20 Rank 3) | 3 (X > 20 Rank 3)
12 | N[C@@H](Cc1ccccc1)C(=O)NC(Cc1cccc(CSc2nnnn2-c2ccc(O)cc2)c1)C(=O)O (stereo partly drawn) [Compound 50] | 0 (X < 0 Rank 0) | 2 (10 < X < 20 Rank 2) | 2 (10 < X < 20 Rank 2)
13 | O=C(Nc1ccc(-c2ccccc2)cc1)NC(Cc1cccc(CSc2nnnn2-c2ccc(O)cc2)c1)C(=O)O (stereo not drawn) [Compound 51] | 0 (X < 0 Rank 0) | 3 (X > 20 Rank 3) | 2 (10 < X < 20 Rank 2)
14 | O=C(Nc1ccc(-c2ccccc2)cc1)NC(Cc1cccc(CSc2ncc[nH]2)c1)C(=O)O (stereo not drawn) [Compound 52] | 0 (X < 0 Rank 0) | 0 (X < 0 Rank 0) | 1 (0 < X < 10 Rank 1)
15 | N[C@@H](Cc1ccccc1)C(=O)NC(Cc1cccc(CSc2nnnn2-c2ccccc2)c1)C(=O)O (stereo partly drawn) [Compound 53] | 0 (X < 0 Rank 0) | 2 (10 < X < 20 Rank 2) | 2 (10 < X < 20 Rank 2)
16 | O=C(Nc1ccc(-c2ccccc2)cc1)NC(Cc1cccc(CSc2nnnn2-c2ccccc2)c1)C(=O)O (stereo not drawn) [Compound 54] | 1 (0 < X < 10 Rank 1) | 3 (X > 20 Rank 3) | 2 (10 < X < 20 Rank 2)
17 | NC(=O)C(Cc1cccc(CSc2nnc(-c3ccncc3)o2)c1)NC(=O)NC(c1ccccc1)c1ccccc1 (stereo not drawn) [Compound 55] | 1 (0 < X < 10 Rank 1) | 3 (X > 20 Rank 3) | 2 (10 < X < 20 Rank 2)
18 | O=C(NC(Cc1cccc(CSc2nnc(-c3ccccc3)[nH]2)c1)C(=O)O)NC(c1ccccc1)c1ccccc1 (stereo not drawn) [Compound 57] | 3 (X > 20 Rank 3) | 3 (X > 20 Rank 3) | 3 (X > 20 Rank 3)
19 | O=C(Nc1ccc(-c2ccccc2)cc1)NC(Cc1cccc(CSc2cncc3c(C(F)(F)F)cccc23)n1)C(=O)O (stereo not drawn) [Compound 61] | 2 (10 < X < 20 Rank 2) | 0 (X < 0 Rank 0) | 2 (10 < X < 20 Rank 2)
20 | O=C(Nc1ccc(-c2ccccc2)cc1)NC(Cc1cccc(CSc2nc3ccccc3[nH]2)n1)C(=O)O (stereo not drawn) [Compound 62] | 0 (X < 0 Rank 0) | 0 (X < 0 Rank 0) | 3 (X > 20 Rank 3)
21 | O=C(Nc1ccc(-c2ccccc2)cc1)NC(Cc1cccc(CSc2nc3ccccc3o2)n1)C(=O)O (stereo not drawn) [Compound 63] | 0 (X < 0 Rank 0) | 0 (X < 0 Rank 0) | 1 (0 < X < 10 Rank 1)
22 | O=C(O)C(Cc1cccc(CSc2ncnc3[nH]ncc23)n1)NS(=O)(=O)c1ccc(F)cc1 (stereo not drawn) [Compound 64] | 0 (X < 0 Rank 0) | 1 (0 < X < 10 Rank 1) | 0 (X < 0 Rank 0)
23 | NC(Cc1cccc(CSc2ccnc3cc(C(F)(F)F)ccc23)c1)C(=O)O (stereo not drawn) [Compound 70] | 0 (X < 0 Rank 0) | 1 (0 < X < 10 Rank 1) | 0 (X < 0 Rank 0)
